Reference: publication PMC11480411, “Mucosal sugars delineate pyrazine vs pyrazinone autoinducer signaling in Klebsiella oxytoca” (Nature Communications, 2024)

Columns and labels:
Test in all cases: PRESTO-Tango GPCR screen
Assay type in all cases: cell-based
Conditions in all cases: 100 µM
OXER1 = target: T1, OXER1 (Homo sapiens, UniProt Q8TDS5)
T1 construct: purchased PRESTO-Tango GPCR kit (Roth lab / Addgene)
Description: (§1) The PRESTO-Tango analyses were performed as previously published. Briefly, HTLA cells, a HEK293 cell line that stably expresses β-arrestin-TEV and tTA-Luciferase (a kind gift from Gilad Barnea, Brown University), were plated in 96-well tissue culture plates (Eppendorf) in DMEM containing 10% FBS and 1% Penicillin/Streptomycin. One day after plating (after reaching approximately 90% confluence), 200 ng per well GPCR-Tango plasmids[37] in 20 μL DMEM were individually mixed with 400 ng polyethylenimine (Polysciences) in an equal volume of DMEM and incubated for 20 min at room temperature before adding the transfection mixture to the HTLA cells. 16-24 h after transfection, medium was replaced with 180 μL fresh DMEM containing 1% Penicillin/Streptomycin and 10 mM HEPES and 20 μL of 3 or 3-Homo to reach a final concentration of 100 μM. Supernatants were aspirated 20 h after stimulation and 50 μl per well of Bright-Glo solution (Promega) diluted 20-fold with PBS containing 20 mM HEPES was added into each well. After 15 min incubation at room temperature, luminescence was quantified using a Spectramax i3x microplate reader (Molecular Devices). Activation fold for each sample was calculated by dividing relative luminescence units (RLU) for each condition by RLUs from PBS control. Dose response curves of each chemical were performed in a similar way with varying the ligand concentration from 10^−4 M to 10^−15 M.

GPR150 = target: T2, GPR150 (Homo sapiens, UniProt Q8NGU9)
T2 construct: purchased PRESTO-Tango GPCR kit (Roth lab / Addgene)
Description: as §1

PTH1R = target: T3, PTH1R (Homo sapiens, UniProt Q03431)
T3 construct: purchased PRESTO-Tango GPCR kit (Roth lab / Addgene)
Description: as §1

CHRM5 = target: T4, CHRM5 (Homo sapiens, UniProt P08912)
T4 construct: purchased PRESTO-Tango GPCR kit (Roth lab / Addgene)
Description: as §1

GPR35 = target: T5, GPR35 (Homo sapiens, UniProt Q9HC97)
T5 construct: purchased PRESTO-Tango GPCR kit (Roth lab / Addgene)
Description: as §1

GPR120 = target: T6, GPR120 (Homo sapiens, UniProt Q5NUL3)
T6 construct: purchased PRESTO-Tango GPCR kit (Roth lab / Addgene)
Description: as §1

GPR27 = target: T7, GPR27 (Homo sapiens, UniProt Q9NS67)
T7 construct: purchased PRESTO-Tango GPCR kit (Roth lab / Addgene)
Description: as §1

GPR6 = target: T8, GPR6 (Homo sapiens, UniProt P46095)
T8 construct: purchased PRESTO-Tango GPCR kit (Roth lab / Addgene)
Description: as §1

PK1 = target: T9, PK1 (Homo sapiens, UniProt Q8TCW9)
T9 construct: purchased PRESTO-Tango GPCR kit (Roth lab / Addgene)
Description: as §1

TAAR8 = target: T10, TAAR8 (Homo sapiens, UniProt Q969N4)
T10 construct: purchased PRESTO-Tango GPCR kit (Roth lab / Addgene)
Description: as §1

CCR7 = target: T11, CCR7 (Homo sapiens, UniProt P32248)
T11 construct: purchased PRESTO-Tango GPCR kit (Roth lab / Addgene)
Description: as §1

MLNR = target: T12, MLNR (Homo sapiens, UniProt O43193)
T12 construct: purchased PRESTO-Tango GPCR kit (Roth lab / Addgene)
Description: as §1

GPR156 = target: T13, GPR156 (Homo sapiens, UniProt Q8NFN8)
T13 construct: purchased PRESTO-Tango GPCR kit (Roth lab / Addgene)
Description: as §1

GPR148 = target: T14, GPR148 (Homo sapiens, UniProt Q8TDV2)
T14 construct: purchased PRESTO-Tango GPCR kit (Roth lab / Addgene)
Description: as §1

GPR160 = target: T15, GPR160 (Homo sapiens, UniProt Q9UJ42)
T15 construct: purchased PRESTO-Tango GPCR kit (Roth lab / Addgene)
Description: as §1

VIPR1 = target: T16, VIPR1 (Homo sapiens, UniProt P32241)
T16 construct: purchased PRESTO-Tango GPCR kit (Roth lab / Addgene)
Description: as §1

GPR135 = target: T17, GPR135 (Homo sapiens, UniProt Q8IZ08)
T17 construct: purchased PRESTO-Tango GPCR kit (Roth lab / Addgene)
Description: as §1

FSHR = target: T18, FSHR (Homo sapiens, UniProt P23945)
T18 construct: purchased PRESTO-Tango GPCR kit (Roth lab / Addgene)
Description: as §1

F2RL1 = target: T19, F2RL1 (Homo sapiens, UniProt P55085)
T19 construct: purchased PRESTO-Tango GPCR kit (Roth lab / Addgene)
Description: as §1

LPAR1 = target: T20, LPAR1 (Homo sapiens, UniProt Q92633)
T20 construct: purchased PRESTO-Tango GPCR kit (Roth lab / Addgene)
Description: as §1

GPR157 = target: T21, GPR157 (Homo sapiens, UniProt Q5UAW9)
T21 construct: purchased PRESTO-Tango GPCR kit (Roth lab / Addgene)
Description: as §1

ADCYAP1R1 = target: T22, ADCYAP1R1 (Homo sapiens, UniProt P41586)
T22 construct: purchased PRESTO-Tango GPCR kit (Roth lab / Addgene)
Description: as §1

NTSR1 = target: T23, NTSR1 (Homo sapiens, UniProt P30989)
T23 construct: purchased PRESTO-Tango GPCR kit (Roth lab / Addgene)
Description: as §1

FFA2 = target: T24, FFA2 (Homo sapiens, UniProt O15552)
T24 construct: purchased PRESTO-Tango GPCR kit (Roth lab / Addgene)
Description: as §1

GABBR1 = target: T25, GABBR1 (Homo sapiens, UniProt Q9UBS5)
T25 construct: purchased PRESTO-Tango GPCR kit (Roth lab / Addgene)
Description: as §1

GPR18 = target: T26, GPR18 (Homo sapiens, UniProt Q14330)
T26 construct: purchased PRESTO-Tango GPCR kit (Roth lab / Addgene)
Description: as §1

BDKBR2 = target: T27, BDKBR2 (Homo sapiens, UniProt P30411)
T27 construct: purchased PRESTO-Tango GPCR kit (Roth lab / Addgene)
Description: as §1

TACR1 = target: T28, TACR1 (Homo sapiens, UniProt P25103)
T28 construct: purchased PRESTO-Tango GPCR kit (Roth lab / Addgene)
Description: as §1

DRD3 = target: T29, DRD3 (Homo sapiens, UniProt P35462)
T29 construct: purchased PRESTO-Tango GPCR kit (Roth lab / Addgene)
Description: as §1

P2RY8 = target: T30, P2RY8 (Homo sapiens, UniProt Q86VZ1)
T30 construct: purchased PRESTO-Tango GPCR kit (Roth lab / Addgene)
Description: as §1

CXCR7 = target: T31, CXCR7 (Homo sapiens, UniProt P25106)
T31 construct: purchased PRESTO-Tango GPCR kit (Roth lab / Addgene)
Description: as §1

CXCR4 = target: T32, CXCR4 (Homo sapiens, UniProt P61073)
T32 construct: purchased PRESTO-Tango GPCR kit (Roth lab / Addgene)
Description: as §1

GPR113 = target: T33, GPR113 (Homo sapiens, UniProt Q8IZF5)
T33 construct: purchased PRESTO-Tango GPCR kit (Roth lab / Addgene)
Description: as §1

PTGDR = target: T34, PTGDR (Homo sapiens, UniProt Q13258)
T34 construct: purchased PRESTO-Tango GPCR kit (Roth lab / Addgene)
Description: as §1

MC3R = target: T35, MC3R (Homo sapiens, UniProt P41968)
T35 construct: purchased PRESTO-Tango GPCR kit (Roth lab / Addgene)
Description: as §1

GPR65 = target: T36, GPR65 (Homo sapiens, UniProt Q8IYL9)
T36 construct: purchased PRESTO-Tango GPCR kit (Roth lab / Addgene)
Description: as §1

T15 sequence (Q9UJ42 whole entry): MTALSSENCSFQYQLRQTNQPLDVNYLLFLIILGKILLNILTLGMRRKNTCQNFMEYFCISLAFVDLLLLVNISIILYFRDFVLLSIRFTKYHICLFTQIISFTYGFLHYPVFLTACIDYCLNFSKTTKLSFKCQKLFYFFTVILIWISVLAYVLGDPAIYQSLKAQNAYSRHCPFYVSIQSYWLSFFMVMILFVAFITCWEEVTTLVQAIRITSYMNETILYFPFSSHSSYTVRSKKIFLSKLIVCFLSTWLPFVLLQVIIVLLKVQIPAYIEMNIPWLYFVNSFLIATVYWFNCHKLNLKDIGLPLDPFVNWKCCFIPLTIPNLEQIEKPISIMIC
T12 sequence (O43193 whole entry): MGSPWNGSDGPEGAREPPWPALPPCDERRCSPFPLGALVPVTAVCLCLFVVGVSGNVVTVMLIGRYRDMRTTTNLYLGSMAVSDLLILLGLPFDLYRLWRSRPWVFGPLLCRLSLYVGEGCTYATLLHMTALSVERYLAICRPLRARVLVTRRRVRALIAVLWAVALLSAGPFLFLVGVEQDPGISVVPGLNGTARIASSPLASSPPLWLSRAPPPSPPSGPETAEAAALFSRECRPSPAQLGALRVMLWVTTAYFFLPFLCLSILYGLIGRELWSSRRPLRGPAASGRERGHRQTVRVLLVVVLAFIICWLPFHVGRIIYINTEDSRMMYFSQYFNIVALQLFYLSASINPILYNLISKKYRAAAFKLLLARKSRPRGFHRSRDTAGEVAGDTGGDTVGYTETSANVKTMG
T7 sequence (Q9NS67 whole entry): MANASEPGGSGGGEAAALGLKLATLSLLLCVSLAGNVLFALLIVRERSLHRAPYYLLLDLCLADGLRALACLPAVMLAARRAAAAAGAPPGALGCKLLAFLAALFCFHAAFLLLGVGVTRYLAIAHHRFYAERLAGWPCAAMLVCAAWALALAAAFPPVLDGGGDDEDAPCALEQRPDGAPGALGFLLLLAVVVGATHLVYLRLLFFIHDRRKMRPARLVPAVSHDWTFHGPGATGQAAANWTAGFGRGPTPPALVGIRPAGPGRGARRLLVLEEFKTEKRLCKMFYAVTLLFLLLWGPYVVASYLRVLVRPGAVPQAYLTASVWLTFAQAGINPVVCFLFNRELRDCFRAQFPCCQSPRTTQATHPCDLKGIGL
T35 sequence (P41968 whole entry): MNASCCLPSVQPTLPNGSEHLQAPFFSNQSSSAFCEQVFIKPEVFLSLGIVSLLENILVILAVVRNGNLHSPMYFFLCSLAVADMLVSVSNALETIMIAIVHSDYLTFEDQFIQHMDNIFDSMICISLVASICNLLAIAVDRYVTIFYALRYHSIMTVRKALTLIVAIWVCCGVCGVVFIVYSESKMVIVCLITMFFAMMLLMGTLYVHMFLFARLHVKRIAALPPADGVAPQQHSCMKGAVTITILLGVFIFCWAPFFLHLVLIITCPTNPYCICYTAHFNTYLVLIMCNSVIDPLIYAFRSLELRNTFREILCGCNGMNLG
T25 sequence (Q9UBS5 20-961): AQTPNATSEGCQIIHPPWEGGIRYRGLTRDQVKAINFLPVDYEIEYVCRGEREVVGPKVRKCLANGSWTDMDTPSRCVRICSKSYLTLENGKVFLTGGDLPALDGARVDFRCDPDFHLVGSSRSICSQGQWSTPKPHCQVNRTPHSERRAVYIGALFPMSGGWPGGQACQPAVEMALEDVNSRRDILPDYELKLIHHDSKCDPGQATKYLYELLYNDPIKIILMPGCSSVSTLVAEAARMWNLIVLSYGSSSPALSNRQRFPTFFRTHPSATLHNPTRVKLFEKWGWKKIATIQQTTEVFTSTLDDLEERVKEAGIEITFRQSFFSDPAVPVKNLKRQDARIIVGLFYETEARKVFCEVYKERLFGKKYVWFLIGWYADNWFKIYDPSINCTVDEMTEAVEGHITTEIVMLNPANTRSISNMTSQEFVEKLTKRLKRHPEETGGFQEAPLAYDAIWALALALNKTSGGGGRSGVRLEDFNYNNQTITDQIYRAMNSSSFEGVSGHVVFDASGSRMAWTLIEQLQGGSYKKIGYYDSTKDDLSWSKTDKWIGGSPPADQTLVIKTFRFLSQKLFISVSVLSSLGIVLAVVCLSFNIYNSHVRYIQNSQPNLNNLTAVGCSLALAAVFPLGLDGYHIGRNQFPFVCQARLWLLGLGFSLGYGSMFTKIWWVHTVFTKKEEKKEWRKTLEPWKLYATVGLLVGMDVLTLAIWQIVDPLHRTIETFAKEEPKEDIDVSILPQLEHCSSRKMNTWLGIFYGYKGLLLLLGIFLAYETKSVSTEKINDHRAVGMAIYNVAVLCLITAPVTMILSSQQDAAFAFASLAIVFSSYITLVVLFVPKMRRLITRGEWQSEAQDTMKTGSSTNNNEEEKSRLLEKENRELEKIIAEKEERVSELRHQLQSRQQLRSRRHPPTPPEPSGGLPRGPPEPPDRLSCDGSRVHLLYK
T32 sequence (P61073 whole entry): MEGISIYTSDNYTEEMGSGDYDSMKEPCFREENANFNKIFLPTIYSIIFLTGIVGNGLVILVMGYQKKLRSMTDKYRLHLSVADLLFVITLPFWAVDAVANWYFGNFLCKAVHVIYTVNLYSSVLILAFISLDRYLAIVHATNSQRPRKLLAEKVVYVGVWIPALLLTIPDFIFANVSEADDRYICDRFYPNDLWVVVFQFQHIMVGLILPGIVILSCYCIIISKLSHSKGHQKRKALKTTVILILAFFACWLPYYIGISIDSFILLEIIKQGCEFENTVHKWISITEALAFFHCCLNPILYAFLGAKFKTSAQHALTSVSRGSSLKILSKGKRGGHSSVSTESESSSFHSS
T14 sequence (Q8TDV2 whole entry): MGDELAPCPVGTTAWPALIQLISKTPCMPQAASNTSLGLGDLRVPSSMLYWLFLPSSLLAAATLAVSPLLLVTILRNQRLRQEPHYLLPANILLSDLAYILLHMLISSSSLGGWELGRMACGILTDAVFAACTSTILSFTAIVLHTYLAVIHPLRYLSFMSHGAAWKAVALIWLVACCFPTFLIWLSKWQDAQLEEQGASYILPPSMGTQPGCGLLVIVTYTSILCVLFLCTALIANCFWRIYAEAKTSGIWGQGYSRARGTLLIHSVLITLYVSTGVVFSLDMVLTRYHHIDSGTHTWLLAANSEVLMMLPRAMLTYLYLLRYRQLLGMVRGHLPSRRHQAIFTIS
T28 sequence (P25103 whole entry): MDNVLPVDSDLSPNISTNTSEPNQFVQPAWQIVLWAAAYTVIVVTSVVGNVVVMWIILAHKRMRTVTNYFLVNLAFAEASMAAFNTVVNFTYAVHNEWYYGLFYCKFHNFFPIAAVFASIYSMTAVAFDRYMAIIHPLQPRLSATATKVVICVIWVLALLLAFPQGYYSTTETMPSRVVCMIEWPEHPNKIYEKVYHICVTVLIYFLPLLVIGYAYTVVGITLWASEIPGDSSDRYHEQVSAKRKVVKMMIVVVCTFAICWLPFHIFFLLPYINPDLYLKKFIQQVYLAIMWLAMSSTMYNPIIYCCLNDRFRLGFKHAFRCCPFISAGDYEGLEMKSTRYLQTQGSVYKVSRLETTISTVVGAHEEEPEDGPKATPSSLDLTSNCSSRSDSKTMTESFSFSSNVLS
T16 sequence (P32241 31-457): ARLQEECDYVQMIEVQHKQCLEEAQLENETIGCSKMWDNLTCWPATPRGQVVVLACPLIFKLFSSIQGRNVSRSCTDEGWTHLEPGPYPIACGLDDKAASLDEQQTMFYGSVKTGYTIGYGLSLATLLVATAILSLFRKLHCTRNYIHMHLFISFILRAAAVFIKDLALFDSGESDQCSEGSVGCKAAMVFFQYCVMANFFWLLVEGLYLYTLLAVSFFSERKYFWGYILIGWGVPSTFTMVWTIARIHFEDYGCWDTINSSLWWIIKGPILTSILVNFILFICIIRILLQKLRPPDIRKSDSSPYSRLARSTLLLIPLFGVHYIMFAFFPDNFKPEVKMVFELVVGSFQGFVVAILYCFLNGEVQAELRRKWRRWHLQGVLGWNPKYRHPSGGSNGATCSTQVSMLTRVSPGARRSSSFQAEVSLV
T5 sequence (Q9HC97 whole entry): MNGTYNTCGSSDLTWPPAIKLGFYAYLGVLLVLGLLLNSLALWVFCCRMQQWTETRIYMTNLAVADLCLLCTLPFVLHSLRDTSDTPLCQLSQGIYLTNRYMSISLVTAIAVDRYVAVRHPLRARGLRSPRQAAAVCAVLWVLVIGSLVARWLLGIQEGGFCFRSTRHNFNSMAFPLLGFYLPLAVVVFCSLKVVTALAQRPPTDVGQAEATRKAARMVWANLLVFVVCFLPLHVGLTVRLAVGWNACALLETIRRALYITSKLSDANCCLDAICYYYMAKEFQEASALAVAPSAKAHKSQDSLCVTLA
T23 sequence (P30989 whole entry): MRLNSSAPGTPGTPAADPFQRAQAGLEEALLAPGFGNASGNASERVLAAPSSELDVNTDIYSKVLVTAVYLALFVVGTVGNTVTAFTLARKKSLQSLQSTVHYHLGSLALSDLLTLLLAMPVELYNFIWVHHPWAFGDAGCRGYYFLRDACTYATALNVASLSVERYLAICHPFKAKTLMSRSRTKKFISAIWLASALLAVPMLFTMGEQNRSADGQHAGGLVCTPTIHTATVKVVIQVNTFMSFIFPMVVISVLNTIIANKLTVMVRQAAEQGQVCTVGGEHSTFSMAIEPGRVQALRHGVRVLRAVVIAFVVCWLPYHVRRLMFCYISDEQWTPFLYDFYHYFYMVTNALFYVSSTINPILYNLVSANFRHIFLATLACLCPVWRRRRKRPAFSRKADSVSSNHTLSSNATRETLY

Row | SMILES | GPCR activation (heatmap value) (OXER1) | GPCR activation (heatmap value) (GPR150) | GPCR activation (heatmap value) (PTH1R) | GPCR activation (heatmap value) (CHRM5) | GPCR activation (heatmap value) (GPR35) | GPCR activation (heatmap value) (GPR120) | GPCR activation (heatmap value) (GPR27) | GPCR activation (heatmap value) (GPR6) | GPCR activation (heatmap value) (PK1) | GPCR activation (heatmap value) (TAAR8) | GPCR activation (heatmap value) (CCR7) | GPCR activation (heatmap value) (MLNR) | GPCR activation (heatmap value) (GPR156) | GPCR activation (heatmap value) (GPR148) | GPCR activation (heatmap value) (GPR160) | GPCR activation (heatmap value) (VIPR1) | GPCR activation (heatmap value) (GPR135) | GPCR activation (heatmap value) (FSHR) | GPCR activation (heatmap value) (F2RL1) | GPCR activation (heatmap value) (LPAR1) | further results
1 | CC(C)Cc1ncc(CCCCNC(=N)N)[nH]c1=O [3-Homo] | 0.0005851 | -0.9768 | -0.1159 | -0.008955 | 0.1027 | 0.1572 | -0.5119 | 0.1759 | -0.2718 | -0.2862 | -1.001 | -0.3794 | 0.2712 | 0.1551 | 0.53 | -0.06399 | -0.1206 | -0.01288 | -0.2678 | -0.9265 | GPCR activation (heatmap value) (GPR157): 0.207; GPCR activation (heatmap value) (ADCYAP1R1): 0.1231; GPCR activation (heatmap value) (NTSR1): 0.1673; GPCR activation (heatmap value) (FFA2): -0.3322; GPCR activation (heatmap value) (GABBR1): -1.048; GPCR activation (heatmap value) (GPR18): -0.3064; GPCR activation (heatmap value) (BDKBR2): -0.09391; GPCR activation (heatmap value) (TACR1): -0.4178; GPCR activation (heatmap value) (DRD3): 0.04182; GPCR activation (heatmap value) (P2RY8): 0.2867; GPCR activation (heatmap value) (CXCR7): -1.352; GPCR activation (heatmap value) (CXCR4): 0.1574; GPCR activation (heatmap value) (GPR113): -0.1784; GPCR activation (heatmap value) (PTGDR): 0.1368; GPCR activation (heatmap value) (MC3R): -0.2762; GPCR activation (heatmap value) (GPR65): 0.1433
2 | CC(C)Cc1ncc(CCCNC(=N)N)[nH]c1=O [compound 3] | -0.9579 | -0.9206 | 0.5796 | 0.7902 | -0.5823 | 0.8927 | 0.1426 | -1.168 | -0.4687 | 0.314 | -2.336 | -1.345 | 0.1542 | 0.6105 | 0.6688 | 0.4975 | -1.115 | 0.2361 | 0.6997 | -0.4869 | GPCR activation (heatmap value) (GPR157): 0.4215; GPCR activation (heatmap value) (ADCYAP1R1): 0.214; GPCR activation (heatmap value) (NTSR1): -0.1053; GPCR activation (heatmap value) (FFA2): -0.009625; GPCR activation (heatmap value) (GABBR1): 0.7353; GPCR activation (heatmap value) (GPR18): 0.788; GPCR activation (heatmap value) (BDKBR2): -0.1686; GPCR activation (heatmap value) (TACR1): -0.6956; GPCR activation (heatmap value) (DRD3): 0.613; GPCR activation (heatmap value) (P2RY8): 0.4444; GPCR activation (heatmap value) (CXCR7): -0.2802; GPCR activation (heatmap value) (CXCR4): -0.06133; GPCR activation (heatmap value) (GPR113): -0.04557; GPCR activation (heatmap value) (PTGDR): 0.8064; GPCR activation (heatmap value) (MC3R): 0.4161; GPCR activation (heatmap value) (GPR65): -0.2267
